Legend:
[1] = Stability in 2.5% DMSO-PBS by UV-Vis absorption; format: physicochemical; settings: room temperature, 0-12 h
Description: Stability of drugs is vital indexes for anticancer application. The stability of Rhein-DCA conjugate in vitro was performed by dispersing it in 2.5% dimethyl sulfoxide (DMSO)-PBS at room temperature for 0, 2, 6 and 12 h. […] Furthermore, we also quantitatively analyzed the intracellular stability of Rhein-DCA using high-performance liquid chromatography (HPLC). After 4 h of uptake, the intracellular concentration of Rhein-DCA was 0.095 μg/10^6 cells within 4T1 cells.
UV-Vis spectra were used to investigate the stability of Rhein-DCA conjugate. The Rhein-DCA was dispersed in 2.5% DMSO-PBS at room temperature, and the absorption spectrum was monitored at 0, 2, 6 and 12 h. High performance liquid chromatography (HPLC) was used to investigate the intracellular stability of Rhein-DCA conjugate. 4T1 cells were seeded in cell culture dish (diameter of 10 cm) at a density of 2 × 10^6 cells per dish and cultured in the incubator for 24 h. Then the cells were further treated with Rhein-DCA conjugate at a concentration of 11 μg/mL for 4 h. After removing media and washing the cells three times with PBS to remove the residual Rhein-DCA, the cells were incubated for another 2 h. […] A C18 column was used with methanol / 0.1% H₃PO₄ (83:17) as the mobile phase, flow rate 1.0 mL/min, fluorescence detector with an excitation wavelength of 443 nm and an emission wavelength of 530 nm.

4T1 tumor metastasis = test: Lung and liver metastasis (images, H&E); format: in vivo, Balb/c mice; settings: 20 mg/kg oral, 24 days
Description: Correspondingly, the lung and liver tissues, which are the most common sites for primary tumor metastasis, were obtained and imaged, and then subjected to H&E staining for histopathological examination. […] The major organs (heart, liver, spleen, lung and kidney) were also excised for photographing and H&E staining. The blood biochemistry indexes, including ALT, AST, CREA and UREA were tested.

Q: With O=C(OCCOC(=O)C(Cl)Cl)c1cc(O)c2c(c1)C(=O)c1cccc(O)c1C2=O [Rhein-DCA] as the compound, how does the “stability (UV-Vis absorption spectra)” value [1] read?
A: relatively stable

Q: What about the “metastatic lesions in lungs and livers” value (4T1 tumor metastasis) of the same compound?
A: significantly decreased the number and size of metastatic lesions
